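Step 1: Grow cells in 96-well plates. Step 2: Expose to compound for 48 hours at 5 concentrations. Step 3: Interpolate endpoints linearly; if unreached, use highest concentration. GI50 is the concentration that inhibits growth by half.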 Active and inactive are the calls of the source. Cut-off read from the data, not from the text of the source: active = GI50 up to about 1.1 µM and inactive = higher.
Tests used:
Assay in all cases: DTP human tumour cell line panel, 48 h
SK-OV-3 = test system: SK-OV-3
HCC 2998 = test system: HCC 2998
A549 = test system: A549
SF-268 = test system: SF-268
SR = test system: SR
SW-620 = test system: SW-620
OVCAR-3 = test system: OVCAR-3
SN12C = test system: SN12C
HOP-92 = test system: HOP-92
RXF 393 = test system: RXF 393
M19-MEL = test system: M19-MEL
HCT-15 = test system: HCT-15
UACC-257 = test system: UACC-257
IGROV-1 = test system: IGROV-1
LOX IMVI = test system: LOX IMVI
SF-539 = test system: SF-539
M14 = test system: M14
RPMI-8226 = test system: RPMI-8226
HCT-116 = test system: HCT-116
SF-295 = test system: SF-295
DMS-273 = test system: DMS-273
NCI-H226 = test system: NCI-H226
OVCAR-5 = test system: OVCAR-5
CAKI-1 = test system: CAKI-1
OVCAR-4 = test system: OVCAR-4
OVCAR-8 = test system: OVCAR-8
TK-10 = test system: TK-10
COLO 205 = test system: COLO 205
HOP-62 = test system: HOP-62
SNB-75 = test system: SNB-75
MOLT-4 = test system: MOLT-4
HT-29 = test system: HT-29
KM12 = test system: KM12
K562 = test system: K562
NCI-H460 = test system: NCI-H460
KM-20L2 = test system: KM-20L2
NCI-H522 = test system: NCI-H522
CCRF-CEM = test system: CCRF-CEM
EKVX = test system: EKVX
SNB-19 = test system: SNB-19
Malme-3M = test system: Malme-3M
786-0 = test system: 786-0
UO-31 = test system: UO-31
A498 = test system: A498
SK-MEL-28 = test system: SK-MEL-28
ACHN = test system: ACHN
HL-60 = test system: HL-60
SK-MEL-2 = test system: SK-MEL-2
NCI-H23 = test system: NCI-H23
SNB-78 = test system: SNB-78
UACC-62 = test system: UACC-62
SK-MEL-5 = test system: SK-MEL-5
U-251 = test system: U-251
NCI/ADR-RES = test system: NCI/ADR-RES
DU-145 = test system: DU-145
MCF7 = test system: MCF7
PC-3 = test system: PC-3
Hs-578T = test system: Hs-578T
T47D = test system: T47D
BT-549 = test system: BT-549
MDA-MB-435 = test system: MDA-MB-435
MDA-N = test system: MDA-N
MDA-MB-231 = test system: MDA-MB-231

COc1cccc(/C=N/C23CC4CC(CC(C4)C2)C3)c1
GI50 (SK-OV-3): > 100 µM (inactive)
GI50 (HCC 2998): > 100 µM (inactive)
GI50 (A549): > 100 µM (inactive)
GI50 (SF-268): > 100 µM (inactive)
GI50 (SR): > 100 µM (inactive)
GI50 (SW-620): > 100 µM (inactive)
GI50 (OVCAR-3): > 100 µM (inactive)
GI50 (SN12C): > 100 µM (inactive)
GI50 (HOP-92): > 100 µM (inactive)
GI50 (RXF 393): > 100 µM (inactive)
GI50 (M19-MEL): > 100 µM (inactive)
GI50 (HCT-15): > 100 µM
GI50 (UACC-257): > 100 µM (inactive)
GI50 (IGROV-1): > 100 µM (inactive)
GI50 (LOX IMVI): > 100 µM (inactive)
GI50 (SF-539): > 100 µM (inactive)
GI50 (M14): > 100 µM (inactive)
GI50 (RPMI-8226): > 100 µM (inactive)
GI50 (HCT-116): > 100 µM (inactive)
GI50 (SF-295): > 100 µM (inactive)
GI50 (DMS-273): > 100 µM (inactive)
GI50 (NCI-H226): > 100 µM (inactive)
GI50 (OVCAR-5): > 100 µM (inactive)
GI50 (CAKI-1): > 100 µM (inactive)
GI50 (OVCAR-4): > 100 µM (inactive)
GI50 (OVCAR-8): > 100 µM (inactive)
GI50 (TK-10): > 100 µM (inactive)
GI50 (COLO 205): > 100 µM (inactive)
GI50 (HOP-62): > 100 µM (inactive)
GI50 (SNB-75): 55.5 µM (inactive)
GI50 (MOLT-4): > 100 µM (inactive)
GI50 (HT-29): > 100 µM (inactive)
GI50 (KM12): > 100 µM (inactive)
GI50 (K562): > 100 µM (inactive)
GI50 (NCI-H460): > 100 µM (inactive)
GI50 (KM-20L2): > 100 µM (inactive)
GI50 (NCI-H522): > 100 µM (inactive)
GI50 (CCRF-CEM): > 100 µM (inactive)
GI50 (EKVX): > 100 µM (inactive)
GI50 (SNB-19): > 100 µM (inactive)
GI50 (Malme-3M): > 100 µM (inactive)
GI50 (786-0): > 100 µM (inactive)
GI50 (UO-31): > 100 µM (inactive)
GI50 (A498): > 100 µM (inactive)
GI50 (SK-MEL-28): > 100 µM (inactive)
GI50 (ACHN): > 100 µM (inactive)
GI50 (HL-60): > 100 µM (inactive)
GI50 (SK-MEL-2): > 100 µM (inactive)
GI50 (NCI-H23): > 100 µM (inactive)
GI50 (SNB-78): > 100 µM (inactive)
GI50 (UACC-62): > 100 µM (inactive)
GI50 (SK-MEL-5): > 100 µM (inactive)
GI50 (U-251): > 100 µM (inactive)

CCN(CC)CCNC(=O)c1cn2c(ccc3sc4ccccc4c(=O)c32)n1
GI50 (SK-OV-3): 12.1 µM (inactive)
GI50 (HCC 2998): 10.1 µM (inactive)
GI50 (A549): 4.36 µM (inactive)
GI50 (SF-268): 6.93 µM (inactive)
GI50 (SR): 1.25 µM (inactive)
GI50 (SW-620): 6.25 µM (inactive)
GI50 (OVCAR-3): 12.8 µM (inactive)
GI50 (NCI/ADR-RES): 11.2 µM (inactive)
GI50 (SN12C): 9.33 µM (inactive)
GI50 (HOP-92): 8.91 µM (inactive)
GI50 (RXF 393): 8.22 µM (inactive)
GI50 (DU-145): 12 µM (inactive)
GI50 (HCT-15): 5.21 µM
GI50 (UACC-257): 14.3 µM (inactive)
GI50 (IGROV-1): 5.38 µM (inactive)
GI50 (MCF7): 5.87 µM (inactive)
GI50 (LOX IMVI): 9.18 µM (inactive)
GI50 (SF-539): 10.8 µM (inactive)
GI50 (M14): 15.1 µM (inactive)
GI50 (RPMI-8226): 5.62 µM (inactive)
GI50 (HCT-116): 5.97 µM (inactive)
GI50 (SF-295): 10.5 µM (inactive)
GI50 (PC-3): 10.8 µM (inactive)
GI50 (Hs-578T): 15.3 µM (inactive)
GI50 (NCI-H226): 13.3 µM (inactive)
GI50 (OVCAR-5): 8.57 µM (inactive)
GI50 (CAKI-1): 10 µM (inactive)
GI50 (OVCAR-4): 7.89 µM (inactive)
GI50 (OVCAR-8): 12.3 µM (inactive)
GI50 (T47D): 14.5 µM (inactive)
GI50 (BT-549): 13.8 µM (inactive)
GI50 (TK-10): 14.4 µM (inactive)
GI50 (COLO 205): 6.25 µM (inactive)
GI50 (HOP-62): 5.96 µM (inactive)
GI50 (SNB-75): 16.3 µM (inactive)
GI50 (MOLT-4): 0.502 µM (active)
GI50 (HT-29): 6.89 µM (inactive)
GI50 (KM12): 12.2 µM (inactive)
GI50 (K562): 6.28 µM (inactive)
GI50 (NCI-H460): 1.03 µM (active)
GI50 (NCI-H522): 9.16 µM (inactive)
GI50 (CCRF-CEM): 2.74 µM (inactive)
GI50 (EKVX): 14.6 µM (inactive)
GI50 (SNB-19): 11.5 µM (inactive)
GI50 (Malme-3M): 11.6 µM (inactive)
GI50 (786-0): 4.1 µM (inactive)
GI50 (UO-31): 7.03 µM (inactive)
GI50 (MDA-MB-435): 16.7 µM (inactive)
GI50 (A498): 15.3 µM (inactive)
GI50 (SK-MEL-28): 10.4 µM (inactive)
GI50 (ACHN): 3.64 µM (inactive)
GI50 (HL-60): 5.26 µM (inactive)
GI50 (SK-MEL-2): 21 µM (inactive)
GI50 (NCI-H23): 11.2 µM (inactive)
GI50 (MDA-N): 14.1 µM (inactive)
GI50 (MDA-MB-231): 8.95 µM (inactive)
GI50 (UACC-62): 15.1 µM (inactive)
GI50 (SK-MEL-5): 7.26 µM (inactive)
GI50 (U-251): 13.7 µM (inactive)
